Experimental data from patent US20230278996A1, “YKL-40 INHIBITORS AND THEIR THERAPEUTIC APPLICATIONS” (Molecure S.A., priority 2022, published 2023).
pIC50, pKd: −log10 of the molar value. Where a name gives a salt, the structure may show the parent alone.

Assays:
YKL-40 [1] = target: T1, YKL-40 (Homo sapiens (Human), UniProt P36222); assay: Bio-layer interferometry (BLITz) Kd of biotinylated compounds; type: binding; conditions: symbol preceded by asterisk; biotinylated compound on streptavidin biosensor; read-out: YKL-40:4, Kd
T1 sequence (P36222 22-383): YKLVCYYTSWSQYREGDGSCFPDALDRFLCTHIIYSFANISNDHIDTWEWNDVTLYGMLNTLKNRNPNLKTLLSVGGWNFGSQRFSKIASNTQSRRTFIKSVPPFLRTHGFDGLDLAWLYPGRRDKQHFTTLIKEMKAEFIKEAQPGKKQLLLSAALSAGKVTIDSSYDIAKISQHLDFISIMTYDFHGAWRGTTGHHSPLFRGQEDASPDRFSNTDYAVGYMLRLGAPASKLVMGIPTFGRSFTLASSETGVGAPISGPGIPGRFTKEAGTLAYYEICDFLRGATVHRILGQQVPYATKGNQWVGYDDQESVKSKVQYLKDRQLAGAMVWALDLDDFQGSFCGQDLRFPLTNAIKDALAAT
Experimental: BLITz system (Sartorius) that used Bio-layer interferometry technology was applied to assess Kd of biotinylated compounds. […] During dehydration process the 10 mM stock of biotinylated compound in DMSO was diluted in MST buffer to final concentration of 0.5 μM. In addition, protein stock of recombinant YKL40 (un-tagged, purified in-house) was also prepared in MST buffer at two concentrations: 200 μM and 400 μM. The dehydrated biosensor was applied on the BLITz system that was followed by 5-step procedure: 1) initial baseline for 30 s with MST buffer in tube, 2) loading of 4 μl of biotinylated compound on drop, 3) baseline for 30 s with MST buffer in tube, 4) association of 4 μl of protein stock at one concentration or MST buffer (negative control), 5) dissociation with MST buffer in tube. The same multi-step measurement was done twice for each protein stock concentration and once for negative control. Kd was measured by the BLITz software based on global fitting using the negative control as a reference.

YKL-40 [2] = target: T1, YKL-40; assay: YKL-40:4 assay, competitive chitin binding site AlphaScreen; conditions: competition with biotinylated compound 4 (20 nM), YKL-40-histag 2.5 nM
[3] = target: YKL-40: heparan sulfate interaction (Homo sapiens (Human), UniProt P36222); assay: YKL-40:HS assay, heparan sulfate interference AlphaScreen; type: binding; conditions: competition with biotinylated heparan sulphate (60 nM)
Chain of YKL-40: heparan sulfate interaction (P36222 22-383): as above

Row | pKd (YKL-40 [1]) | pIC50 (YKL-40 [2]) | pIC50 [3] | SMILES
1 | > 7.00 |  |  | O=C(CCCC[C@@H]1SC[C@@H]2NC(=O)N[C@@H]21)NCCOCCOCCOCCOCCOCCOCCOCCOCCOCCOCCOCCOCCC(=O)NC[C@H]1CN(C2CCN(c3ccccn3)CC2)[C@@H](Cc2ccc(Cl)cc2)CO1 [Example 5, N-(((2S,5S)-5-(4-chlorobenzyl)-4-(1-(pyridin-2-yl)piperidin-4-yl)morpholin-2-yl)methyl)-1-(5-((3aS,4S,6aR)-2-oxohexahydro-1H-thieno[3,4-d]imidazol-4-yl)pentanamido)-3,6,9,12,15,18,21,24,27,30,33,36-dodecaoxanonatriacontan-39-amide]
2 |  | > 7.00 | > 7.00 | CN1C[C@H](Cc2ccc(Cl)cc2)N(C2CCN(c3cc(Cl)ccn3)CC2)C[C@@H]1CN1CCOCC1 [compound 51, 4-(((2S,5S)-5-(4-chlorobenzyl)-4-(1-(4-chloropyridin-2-yl)piperidin-4-yl)-1-methyl-piperazin-2-yl)methyl)morpholine hydrochloride]
3 |  | > 7.00 | > 7.00 | CN1C[C@H](Cc2ccc(Cl)cc2)N(C2CCN(c3cc(Cl)ccn3)CC2)C[C@@H]1Cn1ccnc1 [compound 82, (2R,5S)-2-((1H-imidazol-1-yl)methyl)-5-(4-chlorobenzyl)-4-(1-(4-chloropyridin-2-yl)piperidin-4-yl)-1-methylpiperazine hydrochloride]
4 |  | > 7.00 | > 7.00 | CNC(=O)CN1C[C@H](Cc2ccc(Cl)cc2)N(C2CCN(c3ccccn3)CC2)C[C@@H]1CC(C)C [compound 95, 2-((2S,5S)-5-(4-chlorobenzyl)-2-isobutyl-4-(1-(pyridin-2-yl)piperidin-4-yl)piperazin-1-yl)-N-methylacetamide 2,2,2-trifluoroacetate]
5 |  | > 7.00 | > 7.00 | CNC(=O)CN1C[C@H](Cc2ccc(Cl)cc2)N(C2CCN(c3ccccn3)CC2)C[C@@H]1C(C)C [compound 106, 2-((2S,5S)-5-(4-chlorobenzyl)-2-isopropyl-4-(1-(pyridin-2-yl)piperidin-4-yl)piperazin-1-yl)-N-methylacetamide 2,2,2-trifluoroacetate]
6 |  | 6.00 to 7.00 | > 7.00 | Cc1ccnc(N2CCC(N3C[C@H](C)OC[C@@H]3Cc3ccc(Cl)cc3)CC2)c1F [compound 112, (2S,5S)-5-(4-chlorobenzyl)-4-(1-(3-fluoro-4-methylpyridin-2-yl)piperidin-4-yl)-2-methylmorpholine 2,2,2-trifluoroacetate]
7 |  | < 4.00 |  | Cc1nsc(N2CCC(N3C[C@H](C)OC[C@@H]3Cc3ccc(Cl)cc3)CC2)n1 [compound 180, (2S,5S)-5-(4-chlorobenzyl)-2-methyl-4-(1-(3-methyl-1,2,4-thiadiazol-5-yl)piperidin-4-yl)morpholine 2,2,2-trifluoroacetate]
8 |  | < 4.00 |  | C[C@H]1CN(C2CCN(c3nncs3)CC2)[C@@H](Cc2ccc(Cl)cc2)CO1 [compound 181, (2S,5S)-4-(1-(1,3,4-thiadiazol-2-yl)piperidin-4-yl)-5-(4-chlorobenzyl)-2-methylmorpholine 2,2,2-trifluoroacetate]
9 |  | < 4.00 |  | Cc1nnc(N2CCC(N3C[C@H](C)OC[C@@H]3Cc3ccc(Cl)cc3)CC2)s1 [compound 182, (2S,5S)-5-(4-chlorobenzyl)-2-methyl-4-(1-(5-methyl-1,3,4-thiadiazol-2-yl)piperidin-4-yl)morpholine 2,2,2-trifluoroacetate]
10 |  | > 7.00 | > 7.00 | Cc1nc(N2CCC(N3C[C@H](C)OC[C@@H]3Cc3ccc(Cl)cc3)CC2)sc1C [compound 183, (2S,5S)-5-(4-chlorobenzyl)-4-(1-(4,5-dimethylthiazol-2-yl)piperidin-4-yl)-2-methylmorpholine 2,2,2-trifluoroacetate]
11 |  | 5.00 to 6.00 |  | Cc1csc(N2CCC(N3C[C@H](C)OC[C@@H]3Cc3ccc(Cl)cc3)CC2)n1 [compound 184, (2S,5S)-5-(4-chlorobenzyl)-2-methyl-4-(1-(4-methylthiazol-2-yl)piperidin-4-yl)morpholine 2,2,2-trifluoroacetate]
12 |  | > 7.00 | 6.00 to 7.00 | Cc1cnc(N2CCC(N3C[C@H](C)OC[C@@H]3Cc3ccc(Cl)cc3)CC2)s1 [compound 185, (2S,5S)-5-(4-chlorobenzyl)-2-methyl-4-(1-(5-methylthiazol-2-yl)piperidin-4-yl)morpholine 2,2,2-trifluoroacetate]
13 |  | < 4.00 |  | Cc1noc(N2CCC(N3C[C@H](C)OC[C@@H]3Cc3ccc(Cl)cc3)CC2)n1 [compound 188, (2S,5S)-5-(4-chlorobenzyl)-2-methyl-4-(1-(3-methyl-1,2,4-oxadiazol-5-yl)piperidin-4-yl)morpholine 2,2,2-trifluoroacetate]

Row | SMILES | pKd (YKL-40 [1]) | pIC50 (YKL-40 [2]) | pIC50 [3]
14 | CN1C[C@H](Cc2ccc(Cl)cc2)N(C2CCN(c3ccccn3)CC2)C[C@@H]1Cc1ccc(Cl)cc1 [compound 63, (2S,5S)-2,5-bis(4-chlorobenzyl)-1-methyl-4-(1-(pyridin-2-yl)piperidin-4-yl)piperazine 2,2,2-trifluoroacetate] |  | 5.00 to 6.00 | 6.00 to 7.00
